Source: PMC8881573, “Inhibition of SRP-dependent protein secretion by the bacterial alarmone (p)ppGpp” (Nature Communications, 2022)
Where “and” joins values, the source holds several entries; their conditions need not be identical. Equal entries are not always repeated.

Tests used:
(Ec)Ffh-NG [1] = biological target: T1, (Ec)Ffh-NG (Escherichia coli, UniProt P0AGD7); assay: Isothermal titration calorimetry (ITC) of nucleotide binding; design: species or system E. coli
T1 construct: purified NG domains of (Ec)Ffh, (Ec)FtsY and (Bs)Ffh; His6 (C); made in house; host or cells: E. coli BL21 (DE3)
Protocol: (§1) Ligands and proteins (purified NG domains of (Ec)Ffh, (Ec)FtsY and (Bs)Ffh) were diluted with a buffer containing 20 mM HEPES-Na (pH 7.5), 200 mM NaCl, 20 mM MgCl2 and 20 mM KCl. The NG domains of (Ec)Ffh, (Ec)FtsY and (Bs)Ffh were titrated in the sample-cell at a nominal concentration of 25 µM each. The nucleotides GDP, GTP, ppGpp and pppGpp (Jena Bioscience, Germany) were placed in the syringe and their concentrations were predetermined by absorbance at 252 nm to saturate the protein samples during the titrations. All the measurements were performed at 25 °C with the instrument MicroCal PEAQ-ITC (©Malvern Panalytical) with a method consisting of 13 injections (first 0.4 µL, and the rest 3 µL each) and 150 s of spacing. The raw data (see source) were processed with the MicroCal PEAQ-ITC Analysis Software (©Malvern Panalytical) using the “one set of sites” models.

(Ec)FtsY-NG [2] = biological target: T2, (Ec)FtsY-NG (Escherichia coli, UniProt P10121); assay: as above; design: species or system E. coli; conditions: NG domain, 25 °C, one set of sites model
T2 construct: purified NG domains of (Ec)Ffh, (Ec)FtsY and (Bs)Ffh; His6 (C); made in house; host or cells: E. coli BL21 (DE3)
Protocol: as §1

(Ec)Ffh-NG [3] = biological target: T1, (Ec)Ffh-NG; assay: Microscale thermophoresis (MST) ligand binding; design: species or system E. coli; conditions: NG domain labeled with NT 647, 21 °C
Protocol: (§2) Ligand binding assays with purified NG domains of (Ec)Ffh, (Ec)FtsY and (Bs)Ffh proteins were carried out by microscale thermophoresis (MST)[80]. All experiments were performed on a Monolith NT.115 (NanoTemper Technologies GmbH, Munich, Germany; software: NanoTemper Control Version 2.0.2.29) at 21 °C (red LED power was set to 50–100% and infrared laser power to 75%). After labeling of primary amines within (Ec)Ffh, (Ec)FtsY, and (Bs)Ffh (50 µM each) with the dye NT 647 (according to the manufacturers protocol), the proteins were re-buffered in SEC buffer containing 20 mM HEPES-Na, 20 mM KCl, 20 mM MgCl2, 200 mM NaCl (final pH 7.5), 10 mg ml^−1 BSA and 0.007% Tween. Two-hundred nanomolar of (Ec)Ffh, (Ec)FtsY, and (Bs)Ffh were titrated with GDP, GTP, ppGpp, and pppGpp starting from a concentration ranging between 0.75 and 3 mM, respectively. At least six independent MST experiments per ligand and protein were recorded at 680 nm and analyzed using NanoTemper Analysis version 1.5.37 and 1.2.009, and Origin8G software suits.

(Ec)FtsY-NG [4] = biological target: T2, (Ec)FtsY-NG; assay: Microscale thermophoresis (MST) ligand binding; design: species or system E. coli; conditions: NG domain labeled with NT 647, 21 °C
Protocol: as §2

(Bs)Ffh-NG [5] = biological target: T3, (Bs)Ffh-NG (Bacillus subtilis, UniProt P37105); assay: Isothermal titration calorimetry (ITC) of nucleotide binding; design: species or system B. subtilis; conditions: NG domain, 25 °C, one set of sites model
T3 construct: purified NG domains of (Ec)Ffh, (Ec)FtsY and (Bs)Ffh; His6 (N); made in house; host or cells: E. coli Rosetta pLysS
T3 sequence (P37105 1-297 limits assumed): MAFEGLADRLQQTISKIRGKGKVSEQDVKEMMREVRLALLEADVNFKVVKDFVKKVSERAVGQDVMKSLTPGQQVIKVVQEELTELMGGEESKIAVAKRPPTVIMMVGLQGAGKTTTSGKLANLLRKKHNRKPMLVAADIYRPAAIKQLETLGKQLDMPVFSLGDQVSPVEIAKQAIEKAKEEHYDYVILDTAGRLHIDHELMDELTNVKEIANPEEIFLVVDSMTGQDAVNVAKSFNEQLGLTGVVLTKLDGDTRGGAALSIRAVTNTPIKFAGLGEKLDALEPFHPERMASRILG
Protocol: as §1

(Bs)Ffh-NG [6] = biological target: T3, (Bs)Ffh-NG; assay: Microscale thermophoresis (MST) ligand binding; design: species or system B. subtilis; conditions: NG domain labeled with NT 647, 21 °C
Protocol: as §2

T2 sequence (P10121 197-497): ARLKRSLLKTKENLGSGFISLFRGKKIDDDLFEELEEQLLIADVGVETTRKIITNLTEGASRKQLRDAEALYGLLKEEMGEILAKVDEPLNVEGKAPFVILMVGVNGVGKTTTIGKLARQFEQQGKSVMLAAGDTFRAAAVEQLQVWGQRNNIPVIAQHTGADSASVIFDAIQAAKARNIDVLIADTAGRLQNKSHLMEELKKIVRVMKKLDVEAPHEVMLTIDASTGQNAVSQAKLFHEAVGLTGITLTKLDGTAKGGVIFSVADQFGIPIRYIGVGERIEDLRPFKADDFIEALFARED
T1 sequence (P0AGD7 1-296): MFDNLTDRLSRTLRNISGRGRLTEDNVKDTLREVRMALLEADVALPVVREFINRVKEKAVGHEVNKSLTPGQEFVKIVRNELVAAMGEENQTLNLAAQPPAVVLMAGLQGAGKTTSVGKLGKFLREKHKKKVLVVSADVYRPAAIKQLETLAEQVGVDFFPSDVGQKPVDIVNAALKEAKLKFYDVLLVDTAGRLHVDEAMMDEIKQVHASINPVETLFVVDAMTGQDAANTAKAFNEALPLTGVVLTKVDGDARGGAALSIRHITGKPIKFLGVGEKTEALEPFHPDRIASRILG

Structure (SMILES) | Kd ((Ec)Ffh-NG [1]) [nM] | Kd ((Ec)FtsY-NG [2]) [µM] | Kd ((Ec)Ffh-NG [3]) | Kd ((Ec)FtsY-NG [4]; read-out: (Ec)FtsY KD MST) | Kd ((Bs)Ffh-NG [5]) [nM] | Kd ((Bs)Ffh-NG [6]) [µM] | Kd ((Ec)FtsY-NG [4]; (Ec)FtsY KD MST) [µM]
Nc1nc2c(ncn2[C@@H]2O[C@H](COP(=O)(O)OP(=O)(O)O)[C@@H](O)[C@H]2O)c(=O)[nH]1 [GDP] | 2200 ± 600 | 9.8 ± 1.1 | 7.9 µM and 7.94 µM | 9.6 µM and 9.63 µM | 1200 ± 700 | 9.23 ± 0.99 | –
Nc1nc2c(ncn2[C@@H]2O[C@H](COP(=O)(O)OP(=O)(O)OP(=O)(O)O)[C@@H](O)[C@H]2O)c(=O)[nH]1 [GTP] | 700 ± 500 | – | 62.3 µM | – | 600 ± 500 | 30.3 | 63.8
